Results: patent US20260306644A1, “ANTIBODY RECRUITING MOLECULES FOR THE TREATMENT OF CORONAVIRUS DISEASE-19” (priority 2023, published 2026)
Where two headings read alike, the source gives them in different places. Positions of bridges follow the written chain, without caps; N, C: chain ends. Non-standard residues stand in square brackets, D forms with d. Residues, ends and D or L forms follow the SMILES beside them. ξ: configuration not given here. ξIle = CC[C@H](C)C(N)C(=O)O

Target: T1, SARS-CoV-2 Spike A (wild-type) (Severe acute respiratory syndrome coronavirus 2, UniProt P0DTC2)
T1 construct: purchased Meso Scale Diagnostics, LLC V-PLEX SARS-CoV-2 Panel 13 (ACE2) Kit / Panel 23 (ACE2) Kit
Test: MSD ACE2 competition assay (inhibition of Spike binding with ACE2, ECL), A (wild-type)

[1] = IC50 Wild Type, Wild Type Spike

SMILES | IC50 [1] | further results
CC[C@H](C)[C@H](NC(=O)[C@H](CCCCN)NC(=O)[C@H](CCC(N)=O)NC(C)=O)C(=O)N[C@@H](Cc1ccc(O)cc1)C(=O)N[C@@H](CCC(=O)O)C(=O)N[C@H](C(=O)N[C@H]1CSSC[C@@H](C(=O)N[C@@H](CO)C(=O)N[C@@H](CC(=O)O)C(=O)N[C@@H](CC(C)C)C(=O)N[C@H](C(=O)N[C@@H](Cc2ccc(O)cc2)C(=O)N[C@@H](CCC(=O)O)C(=O)N[C@@H](Cc2ccccc2)C(=O)N[C@@H](CCSC)C(=O)N[C@@H](CCCCN)C(=O)N[C@@H](CCCCN)C(=O)NCC(=O)O)[C@@H](C)CC)NC(=O)[C@H](CCCNC(=N)N)NC(=O)[C@H](CCSC)NC(=O)[C@H](CO)NC(=O)[C@H](C)NC(=O)[C@H](CCC(=O)O)NC(=O)[C@H](C)NC(=O)[C@H](Cc2cnc[nH]2)NC(=O)CNC(=O)[C@H](CC(C)C)NC(=O)[C@H](CCC(=O)O)NC(=O)[C@H](CC(=O)O)NC(=O)[C@H](CC(C)C)NC(=O)[C@H](CC(C)C)NC(=O)[C@H](CCCNC(=N)N)NC1=O)[C@@H](C)CC [Compound 133] (Ac-QKIYEICRLLDELGHAEASMRCSDLIYEFMKKG-OH; disulfide 7-22) | 1530 nM | 
CC[C@H](C)[C@H](NC(C)=O)C(=O)N[C@@H](CC(C)C)C(=O)N[C@@H](CCC(N)=O)C(=O)N[C@@H](CCCCN)C(=O)N[C@H](C(=O)N[C@@H](Cc1ccc(O)cc1)C(=O)N[C@@H](CCC(=O)O)C(=O)N[C@H](C(=O)N[C@H]1CSSC[C@@H](C(=O)N[C@@H](CO)C(=O)N[C@@H](CC(=O)O)C(=O)N[C@@H](CC(C)C)C(=O)N[C@H](C(=O)N[C@@H](Cc2ccc(O)cc2)C(=O)N[C@@H](CCC(=O)O)C(=O)N[C@@H](Cc2ccccc2)C(=O)N[C@@H](CCSC)C(=O)N[C@@H](CCCCN)C(=O)N[C@@H](CCCCN)C(=O)NCC(=O)O)[C@@H](C)CC)NC(=O)[C@H](CCCNC(=N)N)NC(=O)[C@H](CCSC)NC(=O)[C@H](CO)NC(=O)[C@H](C)NC(=O)[C@H](CCC(=O)O)NC(=O)[C@H](C)NC(=O)[C@H](Cc2cnc[nH]2)NC(=O)CNC(=O)[C@H](CC(C)C)NC(=O)[C@H](CCC(=O)O)NC(=O)[C@H](CC(=O)O)NC(=O)[C@H](CC(C)C)NC(=O)[C@H](CC(C)C)NC(=O)[C@H](CCCNC(=N)N)NC1=O)[C@@H](C)CC)[C@@H](C)CC [Compound 135] (Ac-ILQKIYEICRLLDELGHAEASMRCSDLIYEFMKKG-OH; disulfide 9-24) | 12.2 nM | 
CC[C@H](C)C(N)C(=O)N[C@@H](CC(C)C)C(=O)N[C@@H](CCC(N)=O)C(=O)N[C@@H](CCCCN)C(=O)N[C@H](C(=O)N[C@@H](Cc1ccc(O)cc1)C(=O)N[C@@H](CCC(=O)O)C(=O)N[C@H](C(=O)N[C@H]1CSSC[C@@H](C(=O)N[C@@H](CO)C(=O)N[C@@H](CC(=O)O)C(=O)N[C@@H](CC(C)C)C(=O)N[C@H](C(=O)N[C@@H](Cc2ccc(O)cc2)C(=O)N[C@@H](CCC(=O)O)C(=O)N[C@@H](Cc2ccccc2)C(=O)N[C@@H](CCSC)C(=O)N[C@@H](CCCCN)C(=O)N[C@@H](CCCCN)C(=O)NCC(=O)O)[C@@H](C)CC)NC(=O)[C@H](CCCNC(=N)N)NC(=O)[C@H](CCSC)NC(=O)[C@H](CO)NC(=O)[C@H](C)NC(=O)[C@H](CCC(=O)O)NC(=O)[C@H](C)NC(=O)[C@H](Cc2cnc[nH]2)NC(=O)CNC(=O)[C@H](CC(C)C)NC(=O)[C@H](CCC(=O)O)NC(=O)[C@H](CC(=O)O)NC(=O)[C@H](CC(C)C)NC(=O)[C@H](CC(C)C)NC(=O)[C@H](CCCNC(=N)N)NC1=O)[C@@H](C)CC)[C@@H](C)CC (some centres unmarked) [Compound 134] (H-[ξIle]LQKIYEICRLLDELGHAEASMRCSDLIYEFMKKG-OH; disulfide 9-24) | 12.2 nM | 
CC[C@H](C)[C@H](NC(=O)[C@H](CCCCN)NC(=O)[C@H](CCC(N)=O)NC(C)=O)C(=O)N[C@@H](Cc1ccc(O)cc1)C(=O)N[C@@H](CCC(=O)O)C(=O)N[C@H](C(=O)N[C@H]1CSSC[C@@H](C(=O)N[C@@H](CO)C(=O)N[C@@H](CC(=O)O)C(=O)N[C@@H](CC(C)C)C(=O)N[C@H](C(=O)N[C@@H](Cc2ccc(O)cc2)C(=O)N[C@@H](CCC(=O)O)C(=O)N[C@@H](Cc2ccccc2)C(=O)N[C@@H](CCSC)C(=O)N[C@@H](CCCCN)C(=O)N[C@@H](CCCCN)C(=O)NCC(=O)O)[C@@H](C)CC)NC(=O)[C@H](CCCNC(=N)N)NC(=O)[C@H](CCSC)NC(=O)[C@H](CO)NC(=O)[C@H](C)NC(=O)[C@H](CCC(=O)O)NC(=O)[C@H](C)NC(=O)[C@H](Cc2cnc[nH]2)NC(=O)CNC(=O)[C@H](CC(C)C)NC(=O)[C@H](CCC(=O)O)NC(=O)[C@H](CC(=O)O)NC(=O)[C@H](CC(C)C)NC(=O)[C@H](CC(C)C)NC(=O)[C@H](CCCNC(=N)N)NC1=O)[C@@H](C)CC [Compound 132] (Ac-QKIYEICRLLDELGHAEASMRCSDLIYEFMKKG-OH; disulfide 7-22) |  | IC50 (read-out: IC50 Wild Type, Wild Type Spike): 5830 nM
CC[C@H](C)[C@H](NC(=O)[C@H](CCCCN)NC(=O)[C@H](CCC(N)=O)NC(C)=O)C(=O)N[C@@H](Cc1ccc(O)cc1)C(=O)N[C@@H](CCC(=O)O)C(=O)N[C@H](C(=O)N[C@@H](CCSC)C(=O)N[C@@H](CCCNC(=N)N)C(=O)N[C@@H](CC(C)C)C(=O)N[C@H]1CSSC[C@@H](C(=O)N[C@@H](CCSC)C(=O)N[C@@H](CCCNC(=N)N)C(=O)N[C@H](C(=O)N[C@@H](CO)C(=O)N[C@@H](CC(=O)O)C(=O)N[C@@H](CC(C)C)C(=O)N[C@H](C(=O)N[C@@H](Cc2ccc(O)cc2)C(=O)N[C@@H](CCC(=O)O)C(=O)N[C@@H](Cc2ccccc2)C(=O)N[C@@H](CCSC)C(=O)N[C@@H](CCCCN)C(=O)N[C@@H](CCCCN)C(=O)NCC(N)=O)[C@@H](C)CC)C(C)C)NC(=O)[C@H](C)NC(=O)[C@H](CCC(=O)O)NC(=O)[C@H](C)NC(=O)[C@H](Cc2c[nH]cn2)NC(=O)CNC(=O)[C@H](CC(C)C)NC(=O)[C@H](CCC(=O)O)NC(=O)[C@H](CC(=O)O)NC1=O)[C@@H](C)CC [Compound 178] (Ac-QKIYEIMRLCDELGHAEACMRVSDLIYEFMKKG-NH2; disulfide 10-19) | > 10000 nM | 
CC[C@H](C)[C@H](NC(=O)[C@H](CC(C)C)NC(=O)[C@H](CC(=O)O)NC(=O)[C@H](CO)NC(=O)[C@@H]1CSSC[C@H](NC(=O)[C@@H](NC(=O)[C@H](CCC(=O)O)NC(=O)[C@H](Cc2ccc(O)cc2)NC(=O)[C@@H](NC(=O)[C@H](CCCCN)NC(=O)[C@H](CCC(N)=O)NC(=O)[C@H](CC(C)C)NC(=O)[C@@H](NC(=O)[C@H](Cc2c[nH]c3ccccc23)NC(=O)[C@H](CCC(=O)O)NC(=O)[C@H](CCCCN)NC(=O)[C@@H](N)CC(=O)O)[C@@H](C)CC)[C@@H](C)CC)[C@@H](C)CC)C(=O)N[C@@H](CCCNC(=N)N)C(=O)N[C@@H](CC(C)C)C(=O)N[C@@H](CC(C)C)C(=O)N[C@@H](CC(=O)O)C(=O)N[C@@H](CCC(=O)O)C(=O)N[C@@H](CC(C)C)C(=O)NCC(=O)N[C@@H](Cc2cnc[nH]2)C(=O)N[C@@H](C)C(=O)N[C@@H](CCC(=O)O)C(=O)N[C@@H](C)C(=O)N[C@@H](CO)C(=O)N[C@@H](CCSC)C(=O)N[C@@H](CCCNC(=N)N)C(=O)N1)C(=O)N[C@@H](Cc1ccc(O)cc1)C(=O)N[C@@H](CCC(=O)O)C(=O)N[C@@H](Cc1ccccc1)C(=O)N[C@@H](CCSC)C(=O)N[C@@H](CCCCN)C(=O)N[C@@H](CCCCN)C(=O)NCC(=O)O [Compound 136] (H-DKEWILQKIYEICRLLDELGHAEASMRCSDLIYEFMKKG-OH; disulfide 13-28) | 2.53 nM | 
CC[C@H](C)[C@H](NC(=O)[C@H](CC(C)C)NC(=O)[C@H](CC(=O)O)NC(=O)[C@H](CO)NC(=O)[C@@H]1CSSC[C@H](NC(=O)[C@@H](NC(=O)[C@H](CCC(=O)O)NC(=O)[C@H](Cc2ccc(O)cc2)NC(=O)[C@@H](NC(=O)[C@H](CCCCN)NC(=O)[C@H](CCC(N)=O)NC(=O)[C@H](CC(C)C)NC(=O)[C@@H](NC(=O)[C@H](Cc2c[nH]c3ccccc23)NC(=O)[C@H](CCC(=O)O)NC(=O)[C@H](CCCCN)NC(=O)[C@H](CC(=O)O)NC(C)=O)[C@@H](C)CC)[C@@H](C)CC)[C@@H](C)CC)C(=O)N[C@@H](CCCNC(=N)N)C(=O)N[C@@H](CC(C)C)C(=O)N[C@@H](CC(C)C)C(=O)N[C@@H](CC(=O)O)C(=O)N[C@@H](CCC(=O)O)C(=O)N[C@@H](CC(C)C)C(=O)NCC(=O)N[C@@H](Cc2cnc[nH]2)C(=O)N[C@@H](C)C(=O)N[C@@H](CCC(=O)O)C(=O)N[C@@H](C)C(=O)N[C@@H](CO)C(=O)N[C@@H](CCSC)C(=O)N[C@@H](CCCNC(=N)N)C(=O)N1)C(=O)N[C@@H](Cc1ccc(O)cc1)C(=O)N[C@@H](CCC(=O)O)C(=O)N[C@@H](Cc1ccccc1)C(=O)N[C@@H](CCSC)C(=O)N[C@@H](CCCCN)C(=O)N[C@@H](CCCCN)C(=O)NCC(=O)O [Compound 137] (Ac-DKEWILQKIYEICRLLDELGHAEASMRCSDLIYEFMKKG-OH; disulfide 13-28) | 2.91 nM | 
CC[C@H](C)[C@H](NC(=O)[C@H](CC(C)C)NC(=O)[C@H](CC(=O)O)NC(=O)[C@H](CO)NC(=O)[C@@H](NC(=O)[C@H](CCCNC(=N)N)NC(=O)[C@H](CCSC)NC(=O)[C@@H]1CSSC[C@H](NC(=O)[C@H](CC(C)C)NC(=O)[C@H](CCCNC(=N)N)NC(=O)[C@H](CCSC)NC(=O)[C@@H](NC(=O)[C@H](CCC(=O)O)NC(=O)[C@H](Cc2ccc(O)cc2)NC(=O)[C@@H](NC(=O)[C@H](CCCCN)NC(=O)[C@H](CCC(N)=O)NC(=O)[C@H](CC(C)C)NC(=O)[C@@H](NC(=O)[C@H](Cc2c[nH]c3ccccc23)NC(=O)[C@H](CCC(=O)O)NC(=O)[C@H](CCCCN)NC(=O)[C@H](CC(=O)O)NC(=O)[C@H](CO)NC(C)=O)[C@@H](C)CC)[C@@H](C)CC)[C@@H](C)CC)C(=O)N[C@@H](CC(=O)O)C(=O)N[C@@H](CCC(=O)O)C(=O)N[C@@H](CC(C)C)C(=O)NCC(=O)N[C@@H](Cc2c[nH]cn2)C(=O)N[C@@H](C)C(=O)N[C@@H](CCC(=O)O)C(=O)N[C@@H](C)C(=O)N1)C(C)C)C(=O)N[C@@H](Cc1ccc(O)cc1)C(=O)N[C@@H](CCC(=O)O)C(=O)N[C@@H](Cc1ccccc1)C(=O)N[C@@H](CCSC)C(=O)N[C@@H](CCCCN)C(=O)N[C@@H](CCCCN)C(=O)NCC(N)=O [Compound 176] |  | IC50 (read-out: IC50, Wild Type, Wild Type): 5.02 nM
